Where two headings read alike, the source gives them in different places. Each block holds one compound with its values, some of them ahead of it.
Legend:
[1] = Macaque (NHP) pharmacokinetic study after vaginal film administration: vaginal swabs, plasma, PBMCs
Procedure: In NHP film evaluations, both vaginal fluid and blood components (e.g. plasma) samples were collected for at least 31 days post-film administration to assess drug levels and evaluate vaginal release and systemic exposure. […] In study 2, MPT films with increased LNG dose (e.g., 3.5 mg vs. 1 mg) were evaluated. […] Study 3 utilized the same formulation developed for Study 2 by simply replacing LNG with ENG.
The developed MPT film was administered in six macaques.

[2] = macaques; cited from earlier work
[3] = EFdA-TP elimination half-life in macaques; format: in vivo; conditions: macaques vs humans
[4] = humans; cited from earlier work
[5] = In vitro drug release of APIs from the extended-release polymer matrix film (Eudragit with PLGA); format: physicochemical; conditions: FIG. 3; API in Eudragit/PLGA film
Procedure: An initial screening study was conducted to identify suitable polymers for this application.
Based on visual disintegration it was identified that only the combination of PLGA and Eudragit polymers was successful in extending the disintegration time (FIG. 2). […] This burst release could be attributed to the hydrophilic nature of the drug.

Compound: C=C1[C@H](CO)[C@@H](O)C[C@@H]1n1cnc2c(=O)[nH]c(N)nc21 [ETV, Entecavir]
drug release profile in the extended-release polymer matrix [5]: burst release

Compound: C#C[C@]1(O)CC[C@H]2[C@@H]3CCC4=CC(=O)CC[C@@H]4[C@H]3CC[C@@]21CC [LNG, levonorgestrel]
animals above BLQ ([1]; female, macaque, in vivo): 0/3
animals with swab levels above BLQ ([1]; female, macaque, in vivo): 2/3
detectable levels present in the vaginal fluid until day ([1]; female, macaque, in vivo): 31 days
duration of release, vaginal swab and plasma levels ([1]; female, macaque, in vivo): 30 days
animals above BLQ ([1]; female, macaque, in vivo, 7 day): 1/3
plasma half-life compared with previously reported values after oral administration ([1]; in vivo): significantly higher

Compound: CCN1C[C@H](C)n2c(c(O)c3c(=O)n(Cc4ccc(F)c(Cl)c4)nc(C(=O)NC)c32)C1=O [MK-2048]
drug release profile in the extended-release polymer matrix [5]: extended release

Compound: CC(C)OC(=O)[C@H](C)N[P@](=O)(OC[C@H]1O[C@@H](n2ccc(=O)[nH]c2=O)[C@](C)(F)[C@@H]1O)Oc1ccccc1 [SBV, Sofosbuvir]
drug release profile in the extended-release polymer matrix [5]: burst release

Continued, in another order:

detectable levels present in the vaginal fluid until day ([1]; female, macaque, in vivo): 31 days
detected in swabs until day ([1]; female, macaque, in vivo): 31 days
duration of release, vaginal swab and plasma levels ([1]; female, macaque, in vivo): 30 days
animals above BLQ ([1]; female, macaque, in vivo, 28 day): 2/3
animals above BLQ ([1]; female, macaque, in vivo, 31 day): 1/3
drug levels in vivo ([1]; in vivo): sustained drug levels
plasma half-life compared with previously reported values after oral administration ([1]; in vivo): significantly higher
Compound: C#C[C@]1(CO)O[C@@H](n2cnc3c(N)nc(F)nc32)C[C@@H]1O [EFdA, 4′-Ethynyl-2-fluoro-2′-deoxyadenosine]

fold shorter elimination half-life in macaques than in humans [3]: 4-5 times
day until which PBMC levels were above the target (0.05 pmol/10^6 PBMCs) ([1]; MPT film LNG 16 mg, EFdA 14 mg, six macaques): ≥ 14 day
average concentration in PBMCs, remained detectable until day 31 ([1]; MPT film LNG 16 mg, EFdA 14 mg, six macaques, day 31): 0.018 pmol
Compound: C#C[C@]1(COP(=O)(O)OP(=O)(O)OP(=O)(O)O)O[C@@H](n2cnc3c(N)nc(F)nc32)C[C@@H]1O [EFdA-TP]
elimination half-life [2]: ~40 h
elimination half-life [4]: 190 h

drug levels in vivo ([1]; in vivo): sustained drug levels
Compound: C#C[C@]1(O)CC[C@H]2[C@@H]3CCC4=CC(=O)CC[C@@H]4[C@H]3C(=C)C[C@@]21CC [ENG, etonogestrel]
